Measured values: ChEMBL document CHEMBL1201862, “PubChem BioAssay data set” (2004)
The source made the active and inactive calls.

Experiments:
[1] = system: H9c2; test: cells; assay type: functional, cell-based; details: Rattus norvegicus, H9c2, Myocardium;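 also: confirmatory concentration-response retest of ultra-high-throughput screening hits for modulation of myocardial damage; cell death induced by hydrogen peroxide oxidative stress; compound pretreatment for 60 min then peroxide exposure for 2 h; potency is for protecting the cells against peroxide damage rather than for killing them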
[2] = biological target: Troponin, cardiac muscle (Homo sapiens, UniProt P19429+P45379+P63316); test: Fluorescence-based biochemical high throughput dose response assay for activators of the calcium sensitivity of cardiac Regulated Thin Filaments (RTF). [Related pubchem assays (depositor defined):AID493008, AID493018, AID504382, AID504383]; assay type: protein-complex assay
[3] = biological target: T1, Heat shock factor protein 1 (Mus musculus, UniProt P38532); test: inhibition of MG132-induced HSE-luciferase signal, confirmation, cell-based, NIH3T3, luminescence, dose retest (AID 2382); assay type: functional;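 also: NIH3T3 fibroblasts with HSF1-driven luciferase reporter stressed by proteasome inhibitor MG132; luminescence from HSF1-driven luciferase expression after 8 hours of MG132 stress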
T1 sequence (P38532 whole entry): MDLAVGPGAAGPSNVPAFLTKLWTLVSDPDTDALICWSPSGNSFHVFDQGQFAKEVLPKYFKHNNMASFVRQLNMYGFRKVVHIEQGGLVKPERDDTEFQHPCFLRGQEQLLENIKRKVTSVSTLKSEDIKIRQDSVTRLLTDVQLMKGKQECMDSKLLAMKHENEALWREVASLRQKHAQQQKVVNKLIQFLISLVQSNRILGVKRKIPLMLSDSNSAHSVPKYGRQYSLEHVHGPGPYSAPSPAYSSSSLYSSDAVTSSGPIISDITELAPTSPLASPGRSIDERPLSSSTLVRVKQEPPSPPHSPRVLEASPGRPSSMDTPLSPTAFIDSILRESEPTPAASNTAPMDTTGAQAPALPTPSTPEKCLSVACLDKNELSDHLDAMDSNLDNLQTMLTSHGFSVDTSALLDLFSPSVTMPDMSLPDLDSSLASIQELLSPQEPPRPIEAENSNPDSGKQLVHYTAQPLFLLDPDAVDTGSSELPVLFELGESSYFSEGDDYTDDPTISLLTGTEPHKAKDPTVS

[4] = biological target: T2, Coagulation factor XII (Homo sapiens, UniProt P00748); assay type: functional;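 also: activated factor XIIa alpha cleaving a fluorogenic AMC peptide substrate; inhibitor potency from loss of enzyme activity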
T2 sequence (P00748 whole entry): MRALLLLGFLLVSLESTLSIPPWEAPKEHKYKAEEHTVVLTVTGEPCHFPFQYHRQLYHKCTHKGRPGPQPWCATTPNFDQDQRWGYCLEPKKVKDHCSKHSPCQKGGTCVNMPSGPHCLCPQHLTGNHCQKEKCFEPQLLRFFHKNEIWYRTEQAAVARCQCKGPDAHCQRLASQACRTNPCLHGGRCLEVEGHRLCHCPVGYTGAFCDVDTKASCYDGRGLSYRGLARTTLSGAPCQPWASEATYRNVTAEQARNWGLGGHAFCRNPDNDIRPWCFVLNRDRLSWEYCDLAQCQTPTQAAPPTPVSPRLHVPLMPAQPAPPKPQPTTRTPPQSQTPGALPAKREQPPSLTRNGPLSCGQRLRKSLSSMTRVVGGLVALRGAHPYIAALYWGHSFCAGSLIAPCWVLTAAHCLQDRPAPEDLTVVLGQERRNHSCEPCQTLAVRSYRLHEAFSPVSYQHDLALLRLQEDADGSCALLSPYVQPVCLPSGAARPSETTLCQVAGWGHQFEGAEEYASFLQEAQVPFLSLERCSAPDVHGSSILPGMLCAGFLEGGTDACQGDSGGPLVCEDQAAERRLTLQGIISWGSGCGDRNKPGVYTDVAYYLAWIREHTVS

[5] = biological target: T3, Calpain-2 catalytic subunit (Sus scrofa, UniProt P43367); test: pig calpain II inhibitor potency, dose response, biochemical, fluorogenic peptide substrate (AID 1420); assay type: functional
T3 sequence (P43367 whole entry): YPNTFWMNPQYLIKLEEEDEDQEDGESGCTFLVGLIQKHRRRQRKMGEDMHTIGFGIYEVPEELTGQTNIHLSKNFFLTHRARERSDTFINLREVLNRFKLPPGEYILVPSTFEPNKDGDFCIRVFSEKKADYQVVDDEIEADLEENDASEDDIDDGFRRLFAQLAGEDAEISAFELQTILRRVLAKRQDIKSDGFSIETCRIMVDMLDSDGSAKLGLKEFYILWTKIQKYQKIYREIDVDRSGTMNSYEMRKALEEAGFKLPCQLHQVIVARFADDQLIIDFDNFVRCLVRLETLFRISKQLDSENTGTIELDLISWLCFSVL

[6] = biological target: T4, Intestinal-type alkaline phosphatase (Homo sapiens, UniProt P09923); test: human IAP activators, dose response, biochemical, luminescent, uHTS hits, set 2 (AID 488817); assay type: functional;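 also: potency of activators that raise enzyme activity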
[7] = biological target: Intestinal-type alkaline phosphatase (Mus musculus, UniProt P24822); test: PubChem AID 488875; assay type: functional
[8] = biological target: T5, Alkaline phosphatase, tissue-nonspecific isozyme (Homo sapiens, UniProt P05186); test: TNAP enzyme activators, dose response, selectivity assay for human IAP activator project, biochemical, TNAP isozyme, human IAP uHTS hits (AID 488886); assay type: functional;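 also: potency of compounds raising TNAP activity as a selectivity check on IAP activators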
T5 sequence (P05186 whole entry): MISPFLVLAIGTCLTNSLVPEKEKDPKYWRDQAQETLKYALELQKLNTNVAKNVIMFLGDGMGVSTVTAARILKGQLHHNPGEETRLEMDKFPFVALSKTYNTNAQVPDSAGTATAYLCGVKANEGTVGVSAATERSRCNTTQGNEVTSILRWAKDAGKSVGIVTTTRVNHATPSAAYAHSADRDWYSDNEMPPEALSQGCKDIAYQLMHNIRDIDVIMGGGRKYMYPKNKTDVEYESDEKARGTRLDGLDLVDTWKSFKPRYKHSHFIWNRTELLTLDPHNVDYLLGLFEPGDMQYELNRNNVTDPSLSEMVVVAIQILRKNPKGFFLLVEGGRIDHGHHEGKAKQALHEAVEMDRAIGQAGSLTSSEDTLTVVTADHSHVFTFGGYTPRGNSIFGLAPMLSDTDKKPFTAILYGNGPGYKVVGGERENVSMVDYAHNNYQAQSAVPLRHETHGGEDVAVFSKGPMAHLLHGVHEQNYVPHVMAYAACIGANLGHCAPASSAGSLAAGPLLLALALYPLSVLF

[9] = biological target: T4, Intestinal-type alkaline phosphatase; test: human intestinal alkaline phosphatase activators, dose response, biochemical, luminescence, uHTS hits (AID 463120); assay type: functional
[10] = biological target: DNA dC->dU-editing enzyme APOBEC-3A (Homo sapiens, UniProt P31941); test: Dose Response confirmation of small molecule APOBEC3A DNA Deaminase Inhibitors via a fluorescence-based single-stranded DNA deaminase assay. [Related pubchem assays (depositor defined):AID493011, AID493024]; assay type: functional
[11] = biological target: DNA dC->dU-editing enzyme APOBEC-3G (Homo sapiens, UniProt Q9HC16); assay type: functional;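 also: Dose-response counterscreen measuring inhibition of APOBEC3G DNA deaminase activity, run while confirming APOBEC3A inhibitors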
[12] = biological target: T6, Carboxy-terminal domain RNA polymerase II polypeptide A small phosphatase 1 (Homo sapiens, UniProt Q9GZU7); test: inhibitors of CTDSP1, concentration-response testing, biochemical assay, absorbance-based, actives from ultra-high-throughput screening (AID 540297); assay type: functional
T6 sequence (Q9GZU7 whole entry): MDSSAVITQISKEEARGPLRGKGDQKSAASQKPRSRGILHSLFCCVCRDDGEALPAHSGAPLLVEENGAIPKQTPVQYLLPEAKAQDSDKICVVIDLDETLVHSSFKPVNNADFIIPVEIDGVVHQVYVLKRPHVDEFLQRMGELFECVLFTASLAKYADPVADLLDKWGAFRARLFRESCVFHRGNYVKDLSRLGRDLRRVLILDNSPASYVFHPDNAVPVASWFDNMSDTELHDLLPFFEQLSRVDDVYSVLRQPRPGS

[13] = biological target: T7, Voltage-gated N-type calcium channel alpha-1B subunit/Amyloid beta A4 precursor protein-binding family A member 1 (Homo sapiens, UniProt Q00975+Q02410); assay type: protein assay
[14] = biological target: T7, Voltage-gated N-type calcium channel alpha-1B subunit/Amyloid beta A4 precursor protein-binding family A member 1; assay type: protein assay; remark: listed apart in the source

Chain of DNA dC->dU-editing enzyme APOBEC-3A (P31941 whole entry): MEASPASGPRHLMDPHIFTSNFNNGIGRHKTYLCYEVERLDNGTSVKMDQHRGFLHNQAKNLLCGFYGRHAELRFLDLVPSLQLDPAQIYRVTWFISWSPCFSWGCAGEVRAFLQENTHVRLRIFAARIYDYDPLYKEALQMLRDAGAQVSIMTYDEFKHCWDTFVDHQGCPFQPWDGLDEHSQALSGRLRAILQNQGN
Chain of DNA dC->dU-editing enzyme APOBEC-3G (Q9HC16 whole entry, the tested form may be a part): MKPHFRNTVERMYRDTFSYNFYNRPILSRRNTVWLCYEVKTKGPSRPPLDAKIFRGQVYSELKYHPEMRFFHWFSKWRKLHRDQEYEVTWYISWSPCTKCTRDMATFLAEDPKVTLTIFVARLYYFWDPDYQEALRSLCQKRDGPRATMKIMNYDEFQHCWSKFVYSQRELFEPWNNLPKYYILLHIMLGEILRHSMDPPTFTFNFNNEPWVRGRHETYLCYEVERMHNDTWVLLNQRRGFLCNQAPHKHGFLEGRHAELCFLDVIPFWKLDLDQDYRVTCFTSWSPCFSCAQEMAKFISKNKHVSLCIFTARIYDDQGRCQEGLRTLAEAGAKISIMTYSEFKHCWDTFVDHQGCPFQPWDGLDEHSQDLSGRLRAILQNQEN
T4 sequence (P09923 whole entry): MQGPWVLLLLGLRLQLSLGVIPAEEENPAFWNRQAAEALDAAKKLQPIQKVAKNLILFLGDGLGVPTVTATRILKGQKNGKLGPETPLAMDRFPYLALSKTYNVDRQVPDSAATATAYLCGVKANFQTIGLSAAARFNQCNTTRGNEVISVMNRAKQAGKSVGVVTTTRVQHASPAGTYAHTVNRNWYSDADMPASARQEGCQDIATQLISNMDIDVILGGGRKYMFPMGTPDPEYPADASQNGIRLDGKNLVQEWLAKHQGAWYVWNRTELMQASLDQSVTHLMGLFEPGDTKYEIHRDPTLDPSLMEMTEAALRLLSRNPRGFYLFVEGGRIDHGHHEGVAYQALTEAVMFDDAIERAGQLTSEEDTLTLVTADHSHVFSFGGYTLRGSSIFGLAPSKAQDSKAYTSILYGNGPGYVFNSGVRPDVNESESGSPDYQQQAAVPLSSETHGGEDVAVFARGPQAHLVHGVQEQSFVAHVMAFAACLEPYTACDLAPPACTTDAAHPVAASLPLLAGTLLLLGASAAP
Chain of Intestinal-type alkaline phosphatase (Mus musculus, UniProt P24822) (P24822 whole entry): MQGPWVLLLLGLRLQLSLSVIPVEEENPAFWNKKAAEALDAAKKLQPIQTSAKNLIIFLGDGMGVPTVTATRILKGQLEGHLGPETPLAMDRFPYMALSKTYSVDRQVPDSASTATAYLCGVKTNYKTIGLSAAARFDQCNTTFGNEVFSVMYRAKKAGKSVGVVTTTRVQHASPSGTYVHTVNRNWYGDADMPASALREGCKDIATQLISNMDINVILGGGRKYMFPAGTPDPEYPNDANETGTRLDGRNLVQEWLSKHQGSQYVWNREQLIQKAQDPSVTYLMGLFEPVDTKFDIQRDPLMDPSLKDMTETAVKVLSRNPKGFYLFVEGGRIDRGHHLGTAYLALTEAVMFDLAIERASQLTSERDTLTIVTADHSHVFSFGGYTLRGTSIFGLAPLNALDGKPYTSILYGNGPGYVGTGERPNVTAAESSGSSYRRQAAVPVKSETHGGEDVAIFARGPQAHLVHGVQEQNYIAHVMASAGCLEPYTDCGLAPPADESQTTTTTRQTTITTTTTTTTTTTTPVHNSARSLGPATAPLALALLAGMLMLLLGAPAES
T7 sequence (Q00975 whole entry): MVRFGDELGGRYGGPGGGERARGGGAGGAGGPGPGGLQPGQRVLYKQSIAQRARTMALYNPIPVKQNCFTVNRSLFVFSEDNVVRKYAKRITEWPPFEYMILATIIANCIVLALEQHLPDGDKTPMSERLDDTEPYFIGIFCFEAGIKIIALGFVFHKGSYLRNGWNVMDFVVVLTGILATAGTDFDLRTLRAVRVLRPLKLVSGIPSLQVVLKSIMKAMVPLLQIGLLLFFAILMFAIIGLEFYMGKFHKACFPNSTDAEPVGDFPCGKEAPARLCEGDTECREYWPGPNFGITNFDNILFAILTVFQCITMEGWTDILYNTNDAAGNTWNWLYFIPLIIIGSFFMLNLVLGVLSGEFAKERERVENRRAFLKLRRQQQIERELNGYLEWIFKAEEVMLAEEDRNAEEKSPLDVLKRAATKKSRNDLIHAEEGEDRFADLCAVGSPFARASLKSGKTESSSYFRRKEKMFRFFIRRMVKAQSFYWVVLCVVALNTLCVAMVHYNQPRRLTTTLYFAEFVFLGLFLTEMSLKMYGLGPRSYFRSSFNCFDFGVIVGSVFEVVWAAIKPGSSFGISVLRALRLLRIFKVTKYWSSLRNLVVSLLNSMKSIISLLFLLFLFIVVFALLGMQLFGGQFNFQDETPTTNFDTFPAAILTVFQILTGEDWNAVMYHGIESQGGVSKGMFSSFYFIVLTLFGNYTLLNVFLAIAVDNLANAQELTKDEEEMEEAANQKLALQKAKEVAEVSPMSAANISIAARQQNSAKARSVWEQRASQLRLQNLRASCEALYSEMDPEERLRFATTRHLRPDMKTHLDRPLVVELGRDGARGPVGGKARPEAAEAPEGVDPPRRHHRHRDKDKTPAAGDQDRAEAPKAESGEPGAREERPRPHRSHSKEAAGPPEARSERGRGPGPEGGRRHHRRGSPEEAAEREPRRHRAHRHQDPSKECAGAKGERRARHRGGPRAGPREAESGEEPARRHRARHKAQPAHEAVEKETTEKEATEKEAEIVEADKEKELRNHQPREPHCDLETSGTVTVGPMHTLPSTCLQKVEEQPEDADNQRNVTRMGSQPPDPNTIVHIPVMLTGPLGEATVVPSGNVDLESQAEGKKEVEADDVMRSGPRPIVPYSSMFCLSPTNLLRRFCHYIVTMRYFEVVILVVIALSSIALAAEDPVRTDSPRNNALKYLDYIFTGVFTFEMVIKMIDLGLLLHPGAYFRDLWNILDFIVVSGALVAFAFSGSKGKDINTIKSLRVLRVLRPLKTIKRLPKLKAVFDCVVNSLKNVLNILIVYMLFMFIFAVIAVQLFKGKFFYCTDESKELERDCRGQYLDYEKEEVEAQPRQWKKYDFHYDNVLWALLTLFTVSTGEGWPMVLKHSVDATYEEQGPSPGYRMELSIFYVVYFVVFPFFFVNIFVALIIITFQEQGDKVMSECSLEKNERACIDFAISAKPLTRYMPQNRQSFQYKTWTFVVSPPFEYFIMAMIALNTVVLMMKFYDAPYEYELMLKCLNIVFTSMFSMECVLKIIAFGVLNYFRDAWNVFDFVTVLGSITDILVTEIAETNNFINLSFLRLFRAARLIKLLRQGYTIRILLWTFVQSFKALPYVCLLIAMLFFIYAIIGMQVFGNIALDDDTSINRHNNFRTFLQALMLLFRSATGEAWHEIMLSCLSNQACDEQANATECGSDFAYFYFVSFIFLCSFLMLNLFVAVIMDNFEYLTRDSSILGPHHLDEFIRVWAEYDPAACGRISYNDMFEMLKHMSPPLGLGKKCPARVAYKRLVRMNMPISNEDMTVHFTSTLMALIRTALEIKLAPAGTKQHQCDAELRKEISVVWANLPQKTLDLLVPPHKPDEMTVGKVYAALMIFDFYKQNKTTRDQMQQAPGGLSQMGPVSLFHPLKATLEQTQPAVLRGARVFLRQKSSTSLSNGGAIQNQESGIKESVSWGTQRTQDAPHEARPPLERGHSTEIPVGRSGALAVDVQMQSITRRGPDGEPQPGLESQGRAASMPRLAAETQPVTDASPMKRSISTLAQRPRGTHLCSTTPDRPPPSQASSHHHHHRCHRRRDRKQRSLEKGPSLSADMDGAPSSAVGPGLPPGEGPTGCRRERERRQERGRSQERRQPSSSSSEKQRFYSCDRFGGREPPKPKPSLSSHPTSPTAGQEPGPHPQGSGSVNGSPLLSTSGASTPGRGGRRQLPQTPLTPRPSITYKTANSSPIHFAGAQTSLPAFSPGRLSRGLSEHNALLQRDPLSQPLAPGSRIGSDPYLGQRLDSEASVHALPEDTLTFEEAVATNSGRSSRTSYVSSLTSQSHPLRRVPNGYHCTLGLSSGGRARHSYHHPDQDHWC
T7 sequence (Q02410 whole entry): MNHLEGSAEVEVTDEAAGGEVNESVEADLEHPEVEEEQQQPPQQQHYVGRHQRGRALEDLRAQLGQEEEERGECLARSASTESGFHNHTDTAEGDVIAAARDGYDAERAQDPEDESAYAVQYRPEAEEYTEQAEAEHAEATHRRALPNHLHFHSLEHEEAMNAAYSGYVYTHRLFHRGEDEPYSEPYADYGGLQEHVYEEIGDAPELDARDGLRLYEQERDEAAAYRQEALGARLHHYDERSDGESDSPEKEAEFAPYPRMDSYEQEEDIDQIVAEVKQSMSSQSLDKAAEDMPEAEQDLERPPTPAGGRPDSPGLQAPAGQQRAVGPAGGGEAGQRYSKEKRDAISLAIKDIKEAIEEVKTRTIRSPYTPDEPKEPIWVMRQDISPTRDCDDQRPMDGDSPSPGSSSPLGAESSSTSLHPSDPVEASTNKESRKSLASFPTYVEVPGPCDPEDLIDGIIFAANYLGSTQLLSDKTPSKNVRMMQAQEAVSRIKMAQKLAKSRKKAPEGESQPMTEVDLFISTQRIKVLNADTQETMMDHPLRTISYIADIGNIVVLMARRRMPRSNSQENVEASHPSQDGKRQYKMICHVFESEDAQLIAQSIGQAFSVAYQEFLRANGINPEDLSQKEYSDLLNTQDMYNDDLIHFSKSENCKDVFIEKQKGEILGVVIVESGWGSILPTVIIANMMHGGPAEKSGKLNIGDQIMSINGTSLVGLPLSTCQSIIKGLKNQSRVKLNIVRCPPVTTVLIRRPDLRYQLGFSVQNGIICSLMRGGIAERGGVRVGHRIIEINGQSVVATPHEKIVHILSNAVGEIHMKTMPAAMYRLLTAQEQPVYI

With `S=C(Nc1ccc(N2CCOCC2)cc1)Nc1ccc2nc(-c3ccco3)c(-c3ccco3)nc2c1` the IC50 [1] was > 79 µM (inactive) and the EC50 [2] was 2.92 µM (active).
With `COc1ccc(CNC(=O)c2sc(=S)n(-c3ccccc3)c2N)cc1` the EC50 [3] was > 195 µM (not active) and the EC50 [2] was > 71.5 µM (inactive).
With `Cc1ccc(C(=O)Nc2ccc3c(c2)ncn3C)cc1` the EC50 [2] was > 71.4 µM (inactive).
For `CC1Cc2ccccc2N1S(=O)(=O)c1cccc2nsnc12` (stereo not given), the IC50 [4] was > 50 µM (inactive).
In the case of `O=C(c1ccc(N2CCCC2=O)cc1)N1CCCCCC1`, the IC50 [5] is reported as 6.62 µM (not active) and the IC50 [4] is reported as > 50 µM (inactive).
With `COc1ccccc1N(C)S(=O)(=O)c1ccc(Cl)c(C(=O)NNC(=O)c2ccccc2O)c1` the EC50 [6] was 15.7 µM (active), the EC50 [7] was > 100 µM (inactive) and the EC50 [8] was 26.5 µM (active). For the same molecule, the EC50 [9] was 11.5 µM (active).
In the case of `CCOC(=O)C[n+]1c(C)n(C)c2cc(Cl)c(Cl)cc21`, the IC50 [10] is reported as 2.26 µM (active) and the IC50 [11] is reported as 2.2 µM (active).
For `COC(=O)c1ccccc1NC(=O)c1cc[n+](C)cc1`, the IC50 [10] was 3.62 µM (active) and the IC50 [11] was 4.04 µM (active).
`O=C(N/N=C/c1c(F)cccc1Cl)c1cc(C2CC2)[nH]n1` was tested, and the EC50 [6] was 40.6 µM (active), the EC50 [7] was > 100 µM (inactive) and the EC50 [8] was 41.3 µM (active). The EC50 [9] was 21.5 µM (active).
In the case of `CCOc1ccc(/N=C2/SCCCN2C)cc1`, the IC50 [12] is reported as 17 µM (active), the IC50 [10] is reported as 2.19 µM (active) and the IC50 [11] is reported as 2.35 µM (active).
In the case of `N#CCC(=O)N/N=C/c1cn(Cc2ccc(Cl)c(Cl)c2)c2ccccc12`, the IC50 [13] is reported as > 56.8 µM (not active) and the IC50 [14] is reported as > 50 µM (inactive).
